From ChEMBL document CHEMBL1201862, “PubChem BioAssay data set” (2004)
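Where inhibition never reached the appropriate level, the endpoint shown equals the highest concentration tested. Otherwise, values were interpolated linearly from a five-concentration, 48-hour dose response in 96-well plates. GI50 is the concentration that inhibits growth by half.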 The source made the active and inactive calls. Cut-off read from the data, not from the text of the source: active = GI50 up to about 1.1 µM and inactive = higher.

Key:
Assay in all cases: growth of human tumour cells (NCI), 48 h
[1] = system: Malme-3M
[2] = system: MDA-MB-435
[3] = system: M14
[4] = system: MCF7
[5] = system: OVCAR-8
[6] = system: HCT-116
[7] = system: A549
[8] = system: T47D
[9] = system: CAKI-1
[10] = system: U-251
[11] = system: MDA-N
[12] = system: IGROV-1
[13] = system: K562
[14] = system: PC-3
[15] = system: NCI-H460
[16] = system: OVCAR-5
[17] = system: EKVX
[18] = system: RPMI-8226
[19] = system: Hs-578T

Row | SMILES | GI50 [1] | GI50 [2] | GI50 [3] | GI50 [4] | GI50 [5] | GI50 [6] | GI50 [7] | GI50 [8] | GI50 [9] | GI50 [10] | GI50 [11] | GI50 [12] | GI50 [13] | GI50 [14] | GI50 [15] | GI50 [16] | GI50 [17] | GI50 [18] | GI50 [19]
1 | Cc1[nH]c2c(C)ccc(C)c2c1CC(=O)O | 37.7 µM (inactive) | 42.3 µM (inactive) | 41 µM (inactive) | 36.6 µM (inactive) | 32.5 µM (inactive) | 38.5 µM (inactive) | 42.3 µM (inactive) | 41.8 µM (inactive) | 43 µM (inactive) | 35.9 µM (inactive) | 31.5 µM (inactive) | 17.6 µM (inactive) | 34.4 µM (inactive) | 22 µM (inactive) | 31 µM (inactive) | > 100 µM (inactive) | 39 µM (inactive) | 25.7 µM (inactive) | 25.2 µM (inactive)
2 | O=c1oc2ccccc2cc1-c1ccc([N+](=O)[O-])cc1 | > 100 µM (inactive) | > 100 µM (inactive) | > 100 µM (inactive) | > 100 µM (inactive) | 54 µM (inactive) | 36.7 µM (inactive) | 85.9 µM (inactive) | > 100 µM (inactive) | > 100 µM (inactive) | 9.53 µM (inactive) | > 100 µM (inactive) | > 100 µM (inactive) | > 100 µM (inactive) | > 100 µM (inactive) | 14.6 µM (inactive) | > 100 µM (inactive) | > 100 µM (inactive) | > 100 µM (inactive) | 99.5 µM (inactive)
3 | Cc1ccc(CC2(OCCN(C)C)CCC(C(C)(C)C)CC2)cc1 (stereo not drawn) | 1.63 µM (inactive) | 2.37 µM (inactive) | 1.79 µM (inactive) | 2.43 µM (inactive) | 4.62 µM (inactive) | 2.38 µM (inactive) | 3.6 µM (inactive) | 2.87 µM (inactive) | 4.99 µM (inactive) | 2.34 µM (inactive) | 2.53 µM (inactive) | 6.5 µM (inactive) | 1.71 µM (inactive) | 3.04 µM (inactive) | 1.99 µM (inactive) | 5.52 µM (inactive) | 6.14 µM (inactive) | 1.84 µM (inactive) | 12.1 µM (inactive)
4 | CC(=O)c1ccccc1NS(=O)(=O)c1ccc2nc(C)n(NS(=O)(=O)c3ccccc3C(C)=O)c(=O)c2c1 | > 100 µM (inactive) | > 100 µM (inactive) | > 100 µM (inactive) | > 100 µM (inactive) | > 100 µM (inactive) | > 100 µM (inactive) |  | > 100 µM (inactive) | > 100 µM (inactive) | > 100 µM (inactive) | > 100 µM (inactive) | > 100 µM (inactive) | > 100 µM (inactive) | > 100 µM (inactive) | > 100 µM (inactive) | > 100 µM (inactive) | > 100 µM (inactive) | > 100 µM (inactive) | > 100 µM (inactive)
5 | CCN(CC)CCNc1ccc2nnn3c4ccc(OC(C)=O)cc4c(=O)c1c23 | 1.11 µM (active) | 5.15 µM (inactive) | 6.64 µM (inactive) | 2.16 µM (inactive) | 1.15 µM (inactive) | 3.46 µM (inactive) | 3.14 µM (inactive) | 15.8 µM (inactive) | 0.378 µM (active) | 2.22 µM (inactive) | 4.61 µM (inactive) | 0.224 µM (active) |  | 3.62 µM (inactive) | 0.243 µM (active) | 11.7 µM (inactive) | 5.56 µM (inactive) | 1.59 µM (inactive) | 4.39 µM (inactive)
6 | N=C(N)N/N=C/c1nc2n(c1[N+](=O)[O-])CCS2 | 15.6 µM (inactive) | 27.9 µM (inactive) | 25.2 µM (inactive) | 15 µM (inactive) | 15.7 µM (inactive) | 21.9 µM (inactive) | 26.8 µM (inactive) | 17.3 µM (inactive) | > 100 µM (inactive) | 15.7 µM (inactive) | 32.1 µM (inactive) | 50.2 µM (inactive) |  | 31.6 µM (inactive) | 18.1 µM (inactive) | 43.8 µM (inactive) | 22.9 µM (inactive) | 52 µM (inactive) | 30.3 µM (inactive)
7 | N#CC1(C#N)NC(c2ccccc2)C(C#N)(C#N)NC1c1ccccc1 (stereo not drawn) | > 100 µM (inactive) | > 100 µM (inactive) | > 100 µM (inactive) | > 100 µM (inactive) | > 100 µM (inactive) | > 100 µM (inactive) | > 100 µM (inactive) | > 100 µM (inactive) | 6.59 µM (inactive) | > 100 µM (inactive) | > 100 µM (inactive) | > 100 µM (inactive) | > 100 µM (inactive) | > 100 µM (inactive) | > 100 µM (inactive) | > 100 µM (inactive) | > 100 µM (inactive) | > 100 µM (inactive) | > 100 µM (inactive)
8 | CC[C@@]1(O)C(=O)OCc2c1cc1n(c2=O)Cc2c-1nc1ccccc1c2/C=N\NC(=O)C(N)CO (stereo partly drawn) | 9.04 µM (inactive) | 4.25 µM (inactive) | 0.492 µM (active) | 0.27 µM (active) | 0.596 µM (active) | 1.02 µM (active) | 1.05 µM (active) | 0.239 µM (active) | 0.408 µM (active) | 0.232 µM (active) | 6.52 µM (inactive) | 7.59 µM (inactive) | 1.05 µM (active) | 2.2 µM (inactive) | 0.184 µM (active) | 13.4 µM (inactive) | 18.8 µM (inactive) | 1.13 µM (inactive) | > 67.9 µM (inactive)
9 | N#CC(/N=N/c1ccc(Cl)cc1)c1nc2ccccc2o1 (stereo not drawn) | 34.6 µM (inactive) | > 100 µM (inactive) | > 100 µM (inactive) | > 100 µM (inactive) | 88.1 µM (inactive) | 56.4 µM (inactive) | > 100 µM (inactive) | 7.71 µM (inactive) | > 100 µM (inactive) | 29.6 µM (inactive) | > 100 µM (inactive) |  | 15.5 µM (inactive) | 77.6 µM (inactive) | > 100 µM (inactive) | > 100 µM (inactive) | 34.5 µM (inactive) | 15.7 µM (inactive) | 42.7 µM (inactive)
10 | Nc1ccccc1C#CC(=O)c1cccc(C(F)(F)F)c1 | 6.1 µM (inactive) | 2.52 µM (inactive) | 2.22 µM (inactive) | 2.89 µM (inactive) |  | 2.66 µM (inactive) | 16.8 µM (inactive) | 4.03 µM (inactive) | 3.21 µM (inactive) | 1.95 µM (inactive) | 3.1 µM (inactive) | 0.258 µM (active) | 3.01 µM (inactive) | 3.41 µM (inactive) | 19.3 µM (inactive) | 6.59 µM (inactive) | 16.3 µM (inactive) | 2.3 µM (inactive) | 2.56 µM (inactive)
11 | N#C/C(=C\c1ccc(F)cc1)c1nc(-c2cc3ccccc3oc2=O)cs1 | 15.7 µM (inactive) | 54.2 µM (inactive) | 13.8 µM (inactive) | 37.8 µM (inactive) | 21.3 µM (inactive) | 35.2 µM (inactive) | 55.5 µM (inactive) | 24.2 µM (inactive) | 53.6 µM (inactive) | 14.6 µM (inactive) | 76.2 µM (inactive) | 22.6 µM (inactive) | > 100 µM (inactive) | 31.7 µM (inactive) | 33.5 µM (inactive) | > 100 µM (inactive) | 30.8 µM (inactive) | 87.9 µM (inactive) | 15.1 µM (inactive)
12 | Cc1cc(N(C)C)ccc1/N=N/c1ccc2ncccc2c1 | 62.4 µM (inactive) | > 100 µM (inactive) | > 100 µM (inactive) | 20.3 µM (inactive) | > 100 µM (inactive) | 59.7 µM (inactive) | > 100 µM (inactive) | 16.9 µM (inactive) | > 100 µM (inactive) | > 100 µM (inactive) | > 100 µM (inactive) | 86.3 µM (inactive) | 29.8 µM (inactive) | 59.2 µM (inactive) | 27.4 µM (inactive) | > 100 µM (inactive) | 23.6 µM (inactive) | 20.2 µM (inactive) | 30.6 µM (inactive)
13 | Cc1cc(C)c2c(c1)C(=O)C1(C2)Cc2c(ccc(C)c2C)C1=O (stereo not drawn) | 22.3 µM (inactive) | > 100 µM (inactive) | > 100 µM (inactive) | > 100 µM (inactive) | > 100 µM (inactive) | > 100 µM (inactive) | > 100 µM (inactive) | > 100 µM (inactive) | > 100 µM (inactive) | > 100 µM (inactive) | > 100 µM (inactive) | > 100 µM (inactive) | > 100 µM (inactive) | > 100 µM (inactive) | > 100 µM (inactive) |  | > 100 µM (inactive) | > 100 µM (inactive) | > 100 µM (inactive)
14 | CCOP(=O)(OCC)C(Cc1ccc(Cl)cc1)NS(=O)(=O)c1ccc(C)cc1 (stereo not drawn) | > 100 µM (inactive) | > 100 µM (inactive) | > 100 µM (inactive) | > 100 µM (inactive) | > 100 µM (inactive) |  | > 100 µM (inactive) | > 100 µM (inactive) | > 100 µM (inactive) | > 100 µM (inactive) | > 100 µM (inactive) | > 100 µM (inactive) | > 100 µM (inactive) | > 100 µM (inactive) | > 100 µM (inactive) | > 100 µM (inactive) | > 100 µM (inactive) | 98.9 µM (inactive) | > 100 µM (inactive)
15 | O=C(c1cccs1)N1CCN(C(=O)c2cccs2)C1=S | 9.38 µM (inactive) | 2.88 µM (inactive) | 3.83 µM (inactive) | 3.18 µM (inactive) | 5.32 µM (inactive) | 8.77 µM (inactive) | 3.96 µM (inactive) | 4.15 µM (inactive) | 3.68 µM (inactive) | 5.92 µM (inactive) | 3.69 µM (inactive) | 6.7 µM (inactive) | 3.05 µM (inactive) | 4.5 µM (inactive) | 6.75 µM (inactive) | 16 µM (inactive) | 13.9 µM (inactive) | 1.63 µM (inactive) | 10.7 µM (inactive)
